Reference: patent publication US8758816B2, “Compositions comprising azelastine and methods of use thereof” (priority 2004, dated 2014)

System: patients with seasonal allergic rhinitis (SAR)
Experiment: MP 428 two-week randomized double-blind study: Total Nasal Symptom Score (TNSS), change from baseline
Type: in vivo, human
Design: key to Change from Baseline in AM TNSS, Mean / Change from Baseline in AM TNSS, LS Mean / Change from Baseline in AM TNSS, Median: TNSS sum of 4 symptoms each 0-3 (0=none, 3=severe); change from baseline
Settings: for AUC of Change from Baseline in TNSS (AM and PM Combined), Mean / AUC of Change from Baseline in TNSS (AM and PM Combined), Median / AUC of Change from Baseline in TNSS (AM and PM Combined), LS Mean: Day 1 to Day 14; for AUC of Change from Baseline in TNSS (AM and PM Combined), LS Mean: ANCOVA
Description: A two-week, randomized, double-blind study, which evaluated the effects of the co-administration of ASTELIN® (azelastine hydrochloride (HCl)) and FLONASE® (fluticasone propionate) compared to either product alone in patients with seasonal allergic rhinitis (SAR) was conducted during the 2006 Texas mountain cedar season. After a 5-day placebo lead-in period, 151 patients with moderate-to-severe allergic rhinitis symptoms were randomized to either: (1) (49 total patients) ASTELIN® (azelastine hydrochloride (HCl)) plus placebo saline nasal spray 2 sprays per nostril, 15 minutes apart, twice daily (AM & PM); (2) (50 total patients) FLONASE® (fluticasone propionate) plus placebo saline nasal spray, 2 sprays per nostril, 15 minutes apart, once daily (AM) and two sessions of placebo saline nasal spray, 2 sprays per nostril, 15 minutes apart (PM); or (3) (52 total patients) the co-administration of ASTELIN® (azelastine hydrochloride (HCl)) 2 sprays per nostril plus FLONASE® (fluticasone propionate) 2 sprays per nostril (AM), 15 minutes apart, and ASTELIN® (azelastine hydrochloride (HCl)) 2 sprays per nostril plus placebo saline nasal spray, 15 minutes apart, (PM) for a 2-week double-blind treatment period.
The primary efficacy variable was the change from baseline in the Total Nasal Symptom Score (TNSS), which comprised sneezing, itchy nose, runny nose, and nasal congestion (individual symptoms scores were assigned a value between 0 and 3, where 0=no symptoms and 3=severe symptoms). This study was not statistically designed to assess the differences between ASTELIN® and FLONASE®.

[1] = Day 12, Per-Protocol Population
[2] = Day 13, Intent-to-Treat Population
[3] = Day 13, Per-Protocol Population
[4] = Day 14, Intent-to-Treat Population
[5] = Day 14, Per-Protocol Population
[6] = Overall (Day 2 to Day 14), Intent-to-Treat Population
[7] = Overall (Day 2 to Day 14), Per-Protocol Population

Structure (SMILES): CCC(=O)O[C@]1(C(=O)SCF)[C@H](C)C[C@H]2[C@@H]3C[C@H](F)C4=CC(=O)C=C[C@]4(C)[C@@]3(F)[C@@H](O)C[C@@]21C [Fluticasone, fluticasone propionate]
- Percent Change from Baseline in PM TNSS, Median (Day 12, Intent-to-Treat Population): −31.82%
- Change from Baseline in AM and PM Combined TNSS, LS Mean (Day 12, Intent-to-Treat Population, ANCOVA model): −6.12
- Change from Baseline in AM and PM Combined TNSS, LS Mean [1]: −6.16
- Change from Baseline in AM and PM Combined TNSS, Mean [1]: −6.20
- Change from Baseline in AM and PM Combined TNSS, Median [1]: −5.17
- Percent Change from Baseline in AM and PM Combined TNSS, LS Mean [1]: −31.45%
- Percent Change from Baseline in AM and PM Combined TNSS, Mean [1]: −31.50%
- Percent Change from Baseline in AM and PM Combined TNSS, Median [1]: −27.78%
- Change from Baseline in AM TNSS, LS Mean [2]: −3.38
- Change from Baseline in AM TNSS, Mean [2]: −3.32
- Change from Baseline in AM TNSS, Median [2]: −3.00
- Change from Baseline in AM and PM Combined TNSS, Mean [2]: −6.83
- Change from Baseline in AM and PM Combined TNSS, Median [2]: −6.20
- Change from Baseline in PM TNSS, LS Mean [2]: −3.57
- Change from Baseline in PM TNSS, Mean [2]: −3.51
- Change from Baseline in PM TNSS, Median [2]: −3.00
- Percent Change from Baseline in AM TNSS, LS Mean [2]: −34.62%
- Percent Change from Baseline in AM TNSS, Mean [2]: −34.03%
- Percent Change from Baseline in AM TNSS, Median [2]: −28.36%
- Percent Change from Baseline in AM and PM Combined TNSS, LS Mean [2]: −35.63%
- Percent Change from Baseline in AM and PM Combined TNSS, Mean [2]: −34.97%
- Percent Change from Baseline in AM and PM Combined TNSS, Median [2]: −30.43%
- Percent Change from Baseline in PM TNSS, LS Mean [2]: −36.56%
- Percent Change from Baseline in PM TNSS, Mean [2]: −35.75%
- Percent Change from Baseline in PM TNSS, Median [2]: −33.33%
- Change from Baseline in AM and PM Combined TNSS, LS Mean (Day 13, Intent-to-Treat Population, ANCOVA model): −6.95
- Change from Baseline in AM and PM Combined TNSS, LS Mean [3]: −7.03
- Change from Baseline in AM and PM Combined TNSS, Mean [3]: −7.01
- Change from Baseline in AM and PM Combined TNSS, Median [3]: −6.50
- Percent Change from Baseline in AM and PM Combined TNSS, LS Mean [3]: −35.99%
- Percent Change from Baseline in AM and PM Combined TNSS, Mean [3]: −35.73%
- Percent Change from Baseline in AM and PM Combined TNSS, Median [3]: −30.43%
- Change from Baseline in AM TNSS, LS Mean [4]: −3.33
- Change from Baseline in AM TNSS, Mean [4]: −3.28
- Change from Baseline in AM TNSS, Median [4]: −3.00
- Change from Baseline in AM and PM Combined TNSS, Mean [4]: −6.91
- Change from Baseline in AM and PM Combined TNSS, Median [4]: −5.85
- Change from Baseline in PM TNSS, LS Mean [4]: −3.70
- Change from Baseline in PM TNSS, Mean [4]: −3.63
- Change from Baseline in PM TNSS, Median [4]: −3.00
- Percent Change from Baseline in AM TNSS, LS Mean [4]: −33.54%
- Percent Change from Baseline in AM TNSS, Mean [4]: −33.12%
- Percent Change from Baseline in AM TNSS, Median [4]: −31.03%
- Percent Change from Baseline in AM and PM Combined TNSS, LS Mean [4]: −35.62%
- Percent Change from Baseline in AM and PM Combined TNSS, Mean [4]: −35.00%
- Percent Change from Baseline in AM and PM Combined TNSS, Median [4]: −28.71%
- Percent Change from Baseline in PM TNSS, LS Mean [4]: −37.70%
- Percent Change from Baseline in PM TNSS, Mean [4]: −36.79%
- Percent Change from Baseline in PM TNSS, Median [4]: −33.33%
- Change from Baseline in AM and PM Combined TNSS, LS Mean (Day 14, Intent-to-Treat Population, ANCOVA model): −7.02
- Change from Baseline in AM and PM Combined TNSS, LS Mean [5]: −7.15
- Change from Baseline in AM and PM Combined TNSS, Mean [5]: −7.14
- Change from Baseline in AM and PM Combined TNSS, Median [5]: −6.00
- Percent Change from Baseline in AM and PM Combined TNSS, LS Mean [5]: −36.26%
- Percent Change from Baseline in AM and PM Combined TNSS, Mean [5]: −36.03%
- Percent Change from Baseline in AM and PM Combined TNSS, Median [5]: −34.31%
- AUC of Change from Baseline in TNSS (AM and PM Combined), Mean (Intent-to-Treat Population): −64.53
- AUC of Change from Baseline in TNSS (AM and PM Combined), Median (Intent-to-Treat Population): −51.13
- AUC of Change from Baseline in TNSS (AM and PM Combined), LS Mean (Intent-to-Treat Population): −65.00
- Change from Baseline in AM TNSS, LS Mean [6]: −2.55
- Change from Baseline in AM TNSS, Mean [6]: −2.57
- Change from Baseline in AM TNSS, Median [6]: −2.14
- Change from Baseline in AM and PM Combined TNSS, Mean [6]: −5.06
- Change from Baseline in AM and PM Combined TNSS, Median [6]: −3.91
- Change from Baseline in PM TNSS, LS Mean [6]: −2.71
- Change from Baseline in PM TNSS, Mean [6]: −2.43
- Change from Baseline in PM TNSS, Median [6]: −1.86
- Percent Change from Baseline in AM TNSS, LS Mean [6]: −26.39%
- Percent Change from Baseline in AM TNSS, Mean [6]: −26.49%
- Percent Change from Baseline in AM TNSS, Median [6]: −23.89%
- Percent Change from Baseline in AM and PM Combined TNSS, LS Mean [6]: −27.13%
- Percent Change from Baseline in AM and PM Combined TNSS, Mean [6]: −26.12%
- Percent Change from Baseline in AM and PM Combined TNSS, Median [6]: −21.93%
- Percent Change from Baseline in PM TNSS, LS Mean [6]: −27.75%
- Percent Change from Baseline in PM TNSS, Mean [6]: −24.98%
- Percent Change from Baseline in PM TNSS, Median [6]: −20.34%
- Change from Baseline in AM and PM Combined TNSS, LS Mean (Overall (Day 2 to Day 14), Intent-to-Treat Population, ANCOVA model): −5.24
- Change from Baseline in AM and PM Combined TNSS, LS Mean [7]: −5.24
- Change from Baseline in AM and PM Combined TNSS, Mean [7]: −5.14
- Change from Baseline in AM and PM Combined TNSS, Median [7]: −3.91
- Percent Change from Baseline in AM and PM Combined TNSS, LS Mean [7]: −27.12%
- Percent Change from Baseline in AM and PM Combined TNSS, Mean [7]: −26.46%
- Percent Change from Baseline in AM and PM Combined TNSS, Median [7]: −21.93%
- AUC of Change from Baseline in TNSS (AM and PM Combined), Mean (Per-Protocol Population): −65.66
- AUC of Change from Baseline in TNSS (AM and PM Combined), Median (Per-Protocol Population): −51.13
- AUC of Change from Baseline in TNSS (AM and PM Combined), LS Mean (Per-Protocol Population): −65.38
